According to patent US20260256772A1, “BENZOTHIAZOLE COMPOUND AND USE THEREOF” (NANJING REJU THERAPEUTICS, INC., priority 2022, published 2026):

Key:
renal fibrosis = assay: Renal fibrosis animal model (ureter ligation); assay type: in vivo, C57BL/6J mice; conditions: FIG. 11; for serum creatinine (Cr) levels / urea nitrogen (BUN) levels: intraperitoneal (IP) injection from 2nd week of modelling; for pathology: intraperitoneal (IP) injection, kidney Masson staining
Method: In this test example, the efficacy of the compound of the present disclosure was tested on renal fibrosis in an animal model of renal fibrosis. Briefly, C57BL/6J mice, male, 7 to 8 weeks old, were used. The mice were anaesthetized, made to lie supine on a foam board, and disinfected with iodophor, and a longitudinal incision was made in the skin in the middle of the lower abdomen to locate the white line of the abdominal muscle, where the abdominal muscle, fascia and peritoneal layer were dissected. After exposing the surgical field, the kidneys were exposed by pushing the stomach and mesentery of the mice to the right side with a gauze soaked with saline. The model of renal fibrosis was constructed by locating the transparent ureter from the renal pelvis along the renal artery, separating the left ureter, ligating the upper ⅓ of the left ureter, suturing the incision layer by layer, and finally disinfecting with iodophor. Dosing via intraperitoneal injection started from the 2nd week of modelling. At the end of the experiment, the mouse serum was collected, and kidney tissues were taken for Masson staining index assay.

[1] = tested on: wet-age-related macular degeneration; assay: CNV animal model of wet-age-related macular degeneration; assay type: in vivo, mice; conditions: intravitreal (IVT), FIG. 5
Method: In this test example, the efficacy of the compounds of the present disclosure was tested on wet-age-related macular degeneration in a CNV animal model.
Male mice were administered 0.5% probacaine hydrochloride (Alcon) for local anesthesia, and 1% tropicamide to dilate the pupils of the mice. Laser cauterization was performed using a laser photocoagulator (Novus Varia, LUMENIS) with a slit lamp delivery system. And artificially torn adherent glass coverslips were used as contact lenses. Bleeding spots caused by lasers were not included in the statistics. In each experimental group, six mice were analyzed with four impacts per eye to overcome inherent variability.

[2] = tested on: oxygen-induced retinopathy (OIR); assay: Mouse model of oxygen-induced retinopathy (OIR); assay type: in vivo; conditions: intravitreal (IVT), 1 μL of 200 μM at P12, read at P17, FIG. 3
Method: The efficacy of the prodrugs RX001-RX006 as well as RX301 were investigated in a mouse model of oxygen-induced retinopathy (OIR) which to some extent indicates an in vivo model of retinopathy of prematurity (ROP), diabetic retinopathy, and wet age-related macular degeneration.
From postnatal Day 7 (P7) to Day 12 (P12), C57Bl/6 mouse pups and their CD 1 foster mothers were exposed to hyperoxia (75% 02). At P12, the animals were injected intravitreally with 1 μL of the test composition formulated in 1% DMSO, 10% Tween 80, and 20% PEG-400 (200 μM of the compound) and returned to room air until day 17 (P17). On P17, the eyeballs were enucleated, and the retinas were dissected for vascular staining. To determine the area of avascularity or angiogenesis, the retinas were flattened and stained with isolectin B4 (IB4).

platelets = assay: Platelet toxicity test in mice (platelet count); assay type: in vivo; conditions: mice, 0.5 mg/kg single intraperitoneal injection, blood at 6 hours, FIG. 1
Method: In this test example, C57 mice were chosen to detect the effect of the target compounds on platelets.
7 to 8 weeks old […] mice were randomly divided into vehicle group and compound group. The test compound (0.5 mg/kg) or blank vehicle was administrated via single intraperitoneal injection. Blood was collected from the retroorbital venous plexus of the mice at 6 hours, and placed in a blood routine tube containing anticoagulant EDTA-K2. After shaking gently, the blood physiological indicators were measured using a hematology analyzer, with the platelet count as the target parameter for this platelet toxicity test.

SMILES	serum creatinine (Cr) levels (renal fibrosis)	urea nitrogen (BUN) levels (renal fibrosis)	pathology (renal fibrosis)	fluorescence intensity indicators [1]	angiogenesis [2]	avascular zone [2]	platelet toxicity (platelet count) (platelets)
CCN1CCN(C(=O)c2nc(N3CCc4cccc(C(=O)Nc5nc6ccccc6s5)c4C3)ccc2-c2cnn(CC34CC5CC(CC(C5)C3)C4)c2C)CC1 [RX001]	statistically significant improvements	statistically significant improvements	statistically significant improvements	statistically significant improvements			
Cc1c(-c2ccc(N3CCc4cccc(C(=O)Nc5nc6ccccc6s5)c4C3)nc2C(=O)N2CCC(CCOP(=O)(O)O)CC2)cnn1CC12CC3CC(CC(C3)C1)C2 [RX301]	statistically significant improvements	statistically significant improvements	statistically significant improvements	statistically significant improvements	statistically significant improvements	statistically significant improvements	significantly improved
